From publication PMC4418665, “Cyclization of the Urokinase Receptor-Derived Ser-Arg-Ser-Arg-Tyr Peptide Generates a Potent Inhibitor of Trans-Endothelial Migration of Monocytes” (PLoS ONE, 2015)
Peptide text beside a SMILES is read from it.

Target: T1, FPR1 (Homo sapiens, UniProt P21462)
T1 sequence (P21462 1-350): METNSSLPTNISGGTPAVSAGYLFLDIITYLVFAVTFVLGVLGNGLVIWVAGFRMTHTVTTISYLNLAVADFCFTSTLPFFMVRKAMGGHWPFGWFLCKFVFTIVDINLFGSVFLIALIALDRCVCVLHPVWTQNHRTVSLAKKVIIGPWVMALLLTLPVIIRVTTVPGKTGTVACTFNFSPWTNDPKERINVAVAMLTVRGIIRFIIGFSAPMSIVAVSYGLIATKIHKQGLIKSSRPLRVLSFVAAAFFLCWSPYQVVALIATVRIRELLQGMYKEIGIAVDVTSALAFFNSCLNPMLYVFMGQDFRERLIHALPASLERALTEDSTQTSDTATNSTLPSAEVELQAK
Assay: Agonist-induced FPR1 internalization at 37°C, fluorescence microscopy, THP-1 cells
Assay type: cell-based
Set-up: host or cells: THP-1 human monocytic leukemia cells
Conditions: excess (100 nM) unlabelled peptide 30 min at 37°C, then 10 nM FITC-fMLF 30 min at 37°C
Protocol: Once documented that both SRSRY and [SRSRY] peptides compete with fMLF for binding to FPR1, we investigated the effect of [SRSRY] on the motility of monocytes. Preliminarily, we assessed whether [SRSRY] is a ligand of FPR1 on monocyte cell surface. […] (Fig 3A). When binding experiments were performed at 37°C, FPR1 appeared mainly localized within the cytoplasm, adjacent but outside the nucleus of THP-1 cells.
Fig 3 The peptide [SRSRY] binds to FPR1 on THP-1 cell surface. A. THP-1 cells (1.5 x10^6 cells/sample) were pre-incubated with diluents (None), 100 nM fMLF, 100 nM SRSRY or 100 nM [SRSRY] peptides for 60 minutes at 4°C, then exposed to 10 nM N-formyl-Nle-Leu-Phe-Nle-Tyr-Lys-fluorescein (FITC-fMLF) for additional 60 minutes at 4°C. Fluorimetric measurement of cell-associated fluorescence was assed using 485 nm excitation and 535 nm emission filters. Data are expressed as a percentage of the fluorescence associated to THP-1 cells exposed to FITC-fMLF alone (None = 100%) and represent a mean ± SD from triplicates. *Statistical significance (t-test) against None with p<0.001. B. THP-1 cells incubated with diluents (None), 100 nM fMLF, 100 nM SRSRY or 100 nM [SRSRY] peptides for 30 minutes at 37°C and exposed to 10 nM FITC-fMLF for additional 30 minutes at 37°C. Scale bar: 5 μm. Original magnifications: 630x. […]

internalization of fluorescent agonist in THP-1 cells: dramatically reduced
SMILES: N=C(N)NCCC[C@@H]1NC(=O)[C@H](CO)NC(=O)[C@H](Cc2ccc(O)cc2)NC(=O)[C@H](CCCNC(=N)N)NC(=O)[C@H](CO)NC1=O [[SRSRY], [Ser-Arg-Ser-Arg-Tyr]] (cyclo(RSRYS))
